Measurements reported in patent publication US20240382482A1, “PLASMA KALLIKREIN INHIBITORS” (TAKEDA PHARMACEUTICAL COMPANY LIMITED, priority 2021, published 2024).
Counter-ions that a name gives are not always drawn.

Assays:
[1] = biological target: human activated kallikrein enzyme (Homo sapiens, UniProt P03952); experiment: Inhibition of human activated kallikrein enzyme, fluorogenic peptide substrate assay (500 pM enzyme format); assay type: biochemical; details: 500 pM activated kallikrein, 300 μM PFR-AMC substrate, 30 min preincubation, 10 min reaction, room temperature; read-out: Primary Dose Response Assay: Average EC50
human activated kallikrein enzyme, sequence (P03952 391-638 limits assumed): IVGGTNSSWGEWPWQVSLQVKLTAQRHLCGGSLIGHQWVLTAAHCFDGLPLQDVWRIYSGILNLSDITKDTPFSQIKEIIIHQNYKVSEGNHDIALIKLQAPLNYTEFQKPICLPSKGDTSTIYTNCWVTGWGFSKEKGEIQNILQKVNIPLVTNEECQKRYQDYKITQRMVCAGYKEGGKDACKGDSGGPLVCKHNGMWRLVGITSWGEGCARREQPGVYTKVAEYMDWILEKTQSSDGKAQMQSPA
human activated kallikrein enzyme, sequence (P03952 20-390 partner limits assumed): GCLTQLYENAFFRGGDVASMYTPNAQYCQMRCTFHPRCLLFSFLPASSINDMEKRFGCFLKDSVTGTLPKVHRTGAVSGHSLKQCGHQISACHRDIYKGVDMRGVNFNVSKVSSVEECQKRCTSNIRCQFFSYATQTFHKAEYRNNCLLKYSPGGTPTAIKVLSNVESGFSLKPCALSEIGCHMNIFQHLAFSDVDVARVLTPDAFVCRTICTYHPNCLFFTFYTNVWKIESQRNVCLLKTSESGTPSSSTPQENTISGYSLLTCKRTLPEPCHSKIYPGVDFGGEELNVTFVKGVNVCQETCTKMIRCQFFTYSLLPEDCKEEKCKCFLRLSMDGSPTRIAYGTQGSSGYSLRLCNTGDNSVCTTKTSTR
Outline: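 500 pM enzyme preincubated 30 min at room temperature with inhibitor in 20 mM Tris pH 7.5, 150 mM NaCl, 1 mM EDTA, 0.1% PEG-400, 0.1% Triton X-100. Reaction started with 300 μM PFR-AMC and run 10 min at room temperature. AMC fluorescence read at ex 380/em 460 nm, and EC50 values reported as ranges.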

[2] = biological target: T1, plasma kallikrein (Homo sapiens, UniProt P03952); experiment: Neat human plasma assay (fluorogenic peptide), contact pathway-activated plasma; assay type: biochemical; details: sodium citrate human plasma (78% final), 10 nM human FXIIa, 100 μM PFR-AMC, room temperature
T1 construct: added to sodium citrate collected human or rat plasma in a 96-well microplate; from tissue
T1 sequence (P03952 391-638 limits assumed): as the sequence (P03952 391-638 limits assumed) above
T1 sequence (P03952 20-390 partner limits assumed): as the sequence (P03952 20-390 partner limits assumed) above
Method: To analyze inhibition of plasma kallikrein in an ex vivo setting, the potency of compounds was measure in contact pathway-activated plasma assays. In a fluorogenic peptide substrate assay, test compounds dissolved in DMSO were added to sodium citrate collected human or rat plasma in a 96-well microplate. Alternatively, citrated plasma was collected from rats administered the compounds orally or by IV. 10 nM of human FXIIa (Enzyme Research Laboratories) diluted in PKa buffer (20 mM Tris-HCl, pH 7.5, 150 mM NaCl, 1 mM EDTA, 0.1% PEG-8000, and 0.1% Triton X-100) was added to the plasma, followed by the 100 μM of the profluorescent, synthetic plasma kallikrein substrate PFR-AMC (also diluted in PKa buffer). Final plasma concentration in the reaction was 78%. Fluorescence was immediately monitored by excitation/emission wavelengths of 360 nm/480 nm respectively over a period of 5 minutes in a microplate reader. The resulting linear increase in fluorescence emission (reflecting PKa proteolysis of PFR-AMC substrate) was fit to extract a proteolytic rate (fluorescent units over time), and this rate was subsequently plotted against compound inhibitor concentration. Resulting plots were fit to a standard 4-parameter IC50/IC90 equation to determine min/max values, IC50/90, and slope. All experimental steps were performed at room temperature.

Cc1cc(N)nc(C)c1CNc1cc(N2C[C@@H](O)C[C@@H]2c2cn3cc(C4CC4)ccc3n2)ncn1 [Example 135, (3S,5R)-1-(6-(((6-amino-2,4-dimethylpyridin-3-yl)methyl)amino)pyrimidin-4-yl)-5-(6-cyclopropylimidazo[1,2-a]pyridin-2-yl)pyrrolidin-3-ol]
EC50 [1]: ≤ 0.005 µM | IC90 [2]: ≤ 0.5 µM

O=C(Cc1ncn2ccc(Cl)cc12)Nc1cc(NCc2cn3cc(C4CC4)cc(C4(O)COC4)c3n2)ncn1 [Example 14, 2-(7-chloroimidazo[1,5-a]pyridin-1-yl)-N-(6-(((6-cyclopropyl-8-(3-hydroxyoxetan-3-yl)imidazo[1,2-a]pyridin-2-yl)methyl)amino)pyrimidin-4-yl)acetamide]
EC50 [1]: ≤ 0.005 µM | IC90 [2]: ≤ 0.5 µM

O=C(Cc1ncn2ccc(Cl)cc12)Nc1cc(NCc2cn3cc(C4CC4)ccc3n2)cnn1 [Example 31, 2-(7-chloroimidazo[1,5-a]pyridin-1-yl)-N-(5-(((6-cyclopropylimidazo[1,2-a]pyridin-2-yl)methyl)amino)pyridazin-3-yl)acetamide]
EC50 [1]: ≤ 0.005 µM | IC90 [2]: 0.5 to 5 µM

CN1CCN(c2cc(C3CC3)cn3cc(CNc4cc(NC(=O)Cc5ncn6ccc(Cl)cc56)ncn4)nc23)CC1 [Example 17, 2-(7-chloroimidazo[1,5-a]pyridin-1-yl)-N-(6-(((6-cyclopropyl-8-(4-methylpiperazin-1-yl)imidazo[1,2-a]pyridin-2-yl)methyl)amino)pyrimidin-4-yl)acetamide]
EC50 [1]: ≤ 0.005 µM | IC90 [2]: ≤ 0.5 µM

O=C(Cc1ncn2ccc(Cl)cc12)Nc1cc(NCc2cn3cc(C4CC4)cc(CO)c3n2)ccn1 [Example 52, 2-(7-chloroimidazo[1,5-a]pyridin-1-yl)-N-(4-(((6-cyclopropyl-8-(hydroxymethyl)imidazo[1,2-a]pyridin-2-yl)methyl)amino)pyridin-2-yl)acetamide]
EC50 [1]: ≤ 0.005 µM | IC90 [2]: ≤ 0.5 µM

COc1ccc(-n2cnnn2)c(CNc2cc(NCc3cn4cc(C5CC5)ccc4n3)ncn2)c1F [Example 55, N^4-((6-cyclopropylimidazo[1,2-a]pyridin-2-yl)methyl)-N^6-(2-fluoro-3-methoxy-6-(1H-tetrazol-1-yl)benzyl)pyrimidine-4,6-diamine]
EC50 [1]: ≤ 0.005 µM | IC90 [2]: 0.5 to 5 µM

O=C(Cc1ncn2ccc(Cl)cc12)Nc1cc(NCc2cn3cc(C4CC4)ccc3n2)ncn1 [Example 1, 2-(7-chloroimidazo[1,5-a]pyridin-1-yl)-N-(6-(((6-cyclopropylimidazo[1,2-a]pyridin-2-yl)methyl)amino)pyrimidin-4-yl)acetamide]
EC50 [1]: ≤ 0.005 µM | IC90 [2]: 0.5 to 5 µM

Cc1cc(N)nc(C)c1CNc1cc(OCc2cn3cc(C4CC4)cc(C#N)c3n2)ncn1 [Example 112, 2-(((6-(((6-amino-2,4-dimethylpyridin-3-yl)methyl)amino)pyrimidin-4-yl)oxy)methyl)-6-cyclopropylimidazo[1,2-a]pyridine-8-carbonitrile]
EC50 [1]: ≤ 0.005 µM | IC90 [2]: 0.5 to 5 µM

O=C(Cc1ncn2ccc(Cl)cc12)Nc1cc(NCc2cn3cc(C4CC4)cc(N4CCCC4=O)c3n2)ncn1 [Example 12, 2-(7-chloroimidazo[1,5-a]pyridin-1-yl)-N-(6-(((6-cyclopropyl-8-(2-oxopyrrolidin-1-yl)imidazo[1,2-a]pyridin-2-yl)methyl)amino)pyrimidin-4-yl)acetamide]
EC50 [1]: ≤ 0.005 µM | IC90 [2]: 0.5 to 5 µM

N#Cc1cc(C2CC2)cn2cc(CNc3ccnc(NC(=O)Cc4ncn5ccc(Cl)cc45)c3)nc12 [Example 30, 2-(7-chloroimidazo[1,5-a]pyridin-1-yl)-N-(4-(((8-cyano-6-cyclopropylimidazo[1,2-a]pyridin-2-yl)methyl)amino)pyridin-2-yl)acetamide]
EC50 [1]: ≤ 0.005 µM | IC90 [2]: 0.5 to 5 µM

CC(Nc1cc(NC(=O)Cc2ncn3ccc(Cl)cc23)ncn1)c1cn2cc(C3CC3)ccc2n1 (centres unmarked) [Example 45, 2-(7-chloroimidazo[1,5-a]pyridin-1-yl)-N-(6-((1-(6-cyclopropylimidazo[1,2-a]pyridin-2-yl)ethyl)amino)pyrimidin-4-yl)acetamide]
EC50 [1]: 0.005 to 0.05 µM

O=C(Nc1cc(NCc2cn3cc(C4CC4)ccc3n2)ccn1)C1CCc2ccc(Cl)cc2C1 (centres unmarked) [Example 120, 7-chloro-N-(4-(((6-cyclopropylimidazo[1,2-a]pyridin-2-yl)methyl)amino)pyridin-2-yl)-1,2,3,4-tetrahydronaphthalene-2-carboxamide]
EC50 [1]: 0.5 to 9 µM

CC(=O)c1nc(NCc2cn3cc(C4CC4)ccc3n2)cc(NC(=O)Cc2ncn3ccc(Cl)cc23)n1 [Example 102, N-(2-acetyl-6-(((6-cyclopropylimidazo[1,2-a]pyridin-2-yl)methyl)amino)pyrimidin-4-yl)-2-(7-chloroimidazo[1,5-a]pyridin-1-yl)acetamide]
EC50 [1]: ≤ 0.005 µM

CC(O)(C(=O)Nc1cc(NCc2cn3cc(C4CC4)ccc3n2)ncn1)c1ncn2ccc(Cl)c(F)c12 (centres unmarked) [Example 106, 2-(7-chloro-8-fluoroimidazo[1,5-a]pyridin-1-yl)-N-(6-(((6-cyclopropylimidazo[1,2-a]pyridin-2-yl)methyl)amino)pyrimidin-4-yl)-2-hydroxypropanamide]
EC50 [1]: > 9 µM

Cc1cc(C(=N)N)cc(C)c1CNc1cc(OCc2cn3cc(C4CC4)ccc3n2)ncn1 [Example 72, 4-(((6-((6-cyclopropylimidazo[1,2-a]pyridin-2-yl)methoxy)pyrimidin-4-yl)amino)methyl)-3,5-dimethylbenzimidamide formic acid salt]
EC50 [1]: ≤ 0.005 µM

O=C(Cc1ncn2ccc(Cl)cc12)Nc1cc(C(O)c2cn3cc(C4CC4)ccc3n2)ncn1 (centres unmarked) [Example 59, 2-(7-chloroimidazo[1,5-a]pyridin-1-yl)-N-(6-((6-cyclopropylimidazo[1,2-a]pyridin-2-yl)(hydroxy)methyl)pyrimidin-4-yl)acetamide]
EC50 [1]: ≤ 0.005 µM

Cc1cc(CN)cc(C)c1CNc1cc(OCc2cn3cc(C4CC4)ccc3n2)ncn1 [Example 108, N-(4-(aminomethyl)-2,6-dimethylbenzyl)-6-((6-cyclopropylimidazo[1,2-a]pyridin-2-yl)methoxy)pyrimidin-4-amine]
EC50 [1]: ≤ 0.005 µM

CC(Oc1cccc(Cl)c1)C(=O)Nc1cc(NCc2cn3cc(C4CC4)ccc3n2)ncn1 (centres unmarked) [Example 49, 2-(3-chlorophenoxy)-N-(6-(((6-cyclopropylimidazo[1,2-a]pyridin-2-yl)methyl)amino)pyrimidin-4-yl)propanamide formic acid salt]
EC50 [1]: 0.5 to 9 µM

O=C(Cc1ncn2ccc(Cl)cc12)Nc1cc(OCc2cn3cc(C4CC4)ccc3n2)ccn1 [Example 23, 2-(7-chloroimidazo[1,5-a]pyridin-1-yl)-N-(4-((6-cyclopropylimidazo[1,2-a]pyridin-2-yl)methoxy)pyridin-2-yl)acetamide]
EC50 [1]: 0.005 to 0.05 µM

CCOC(=O)CCc1nc(NCc2c(C)cc(C(=N)N)cc2C)cc(OCc2cn3cc(C4CC4)ccc3n2)n1 [Example 70, ethyl 3-(4-((4-carbamimidoyl-2,6-dimethylbenzyl)amino)-6-((6-cyclopropylimidazo[1,2-a]pyridin-2-yl)methoxy)pyrimidin-2-yl)propanoate formic acid salt]
EC50 [1]: ≤ 0.005 µM

Nc1nccc2c1CC(C(=O)Nc1cc(NCc3cn4cc(C5CC5)ccc4n3)ccn1)C2 (centres unmarked) [Example 29, 1-amino-N-(4-(((6-cyclopropylimidazo[1,2-a]pyridin-2-yl)methyl)amino)pyridin-2-yl)-6,7-dihydro-5H-cyclopenta[c]pyridine-6-carboxamide]
EC50 [1]: 0.5 to 9 µM

Clc1cccc([C@H]2C[C@@H]2CNc2cc(NCc3cn4cc(C5CC5)ccc4n3)ncn2)c1 [Example 138, N^4-(((1S,2S)-2-(3-chlorophenyl)cyclopropyl)methyl)-N^6-((6-cyclopropylimidazo[1,2-a]pyridin-2-yl)methyl)pyrimidine-4,6-diamine]
EC50 [1]: 0.5 to 9 µM

COCCOc1nc(NCc2cn3cc(C4CC4)ccc3n2)cc(NC(=O)Cc2ncn3ccc(Cl)cc23)n1 [Example 100, 2-(7-chloroimidazo[1,5-a]pyridin-1-yl)-N-(6-(((6-cyclopropylimidazo[1,2-a]pyridin-2-yl)methyl)amino)-2-(2-methoxyethoxy)pyrimidin-4-yl)acetamide]
EC50 [1]: 0.005 to 0.05 µM

CC(C)(Cc1cc(C2CC2)cn2cc(CNc3cc(NC(=O)Cc4ncn5ccc(Cl)cc45)ncn3)nc12)C(=O)O [Example 40, 3-(2-(((6-(2-(7-chloroimidazo[1,5-a]pyridin-1-yl)acetamido)pyrimidin-4-yl)amino)methyl)-6-cyclopropylimidazo[1,2-a]pyridin-8-yl)-2,2-dimethylpropanoic acid]
EC50 [1]: ≤ 0.005 µM

COc1ccc2oc(=O)n(CC(=O)Nc3cc(NCc4cn5cc(C6CC6)ccc5n4)ccn3)c2c1 [Example 125, N-(4-(((6-cyclopropylimidazo[1,2-a]pyridin-2-yl)methyl)amino)pyridin-2-yl)-2-(5-methoxy-2-oxobenzo[d]oxazol-3 (2H)-yl)acetamide]
EC50 [1]: > 9 µM
